Results on nine compounds are retold here after ChEMBL document CHEMBL1133854, “Discovery and evaluation of piperidinyl carboxylic acid derivatives as potent alpha(4)beta(1) integrin antagonists” (Bioorg Med Chem Lett, 2001).

Series [1] deals with T1, Integrin alpha-4/beta-1 (Homo sapiens, UniProt P05556+P13612). Put plainly: Inhibition of VCAM-1 binding to integrin alpha4-beta1 of Jurkat cells. The series is classed as cell-based.
Series [2] addresses T1, Integrin alpha-4/beta-1. Put plainly: Inhibition of VCAM-1 binding to integrin alpha4-beta1 in Jurkat cells at 10 uM. The series is classed as cell-based.
The nature of series [3]: Partition coefficient (logP). The note with it: octanol/water. The series is classed as physicochemical.
The nature of series [4]: Area under curve (AUC) determined at a dose 10 mg/kg administered intraperitoneally to mice. Type of series: ADME, organism-based. Set-up: dose 10 mg/kg, route intraperitoneal. The settings on record: mouse, in vivo, ip.
The nature of series [5]: Maximal concentration determined at a dose 10 mg/kg administered intraperitoneally to mice. Set-up: dose 10 mg/kg, route intraperitoneal. Type of series: ADME, organism-based. The note with it: mouse, in vivo, ip.
In series [6] the target is Integrin alpha-V/beta-3 (Homo sapiens, UniProt P05106+P06756). Put plainly: Inhibition of VCAM-1 binding to integrin alphaV-beta3 in Jurkat cells. The series is classed as cell-based.
Chain of Integrin alpha-V/beta-3 (P05106 27-788 limits assumed): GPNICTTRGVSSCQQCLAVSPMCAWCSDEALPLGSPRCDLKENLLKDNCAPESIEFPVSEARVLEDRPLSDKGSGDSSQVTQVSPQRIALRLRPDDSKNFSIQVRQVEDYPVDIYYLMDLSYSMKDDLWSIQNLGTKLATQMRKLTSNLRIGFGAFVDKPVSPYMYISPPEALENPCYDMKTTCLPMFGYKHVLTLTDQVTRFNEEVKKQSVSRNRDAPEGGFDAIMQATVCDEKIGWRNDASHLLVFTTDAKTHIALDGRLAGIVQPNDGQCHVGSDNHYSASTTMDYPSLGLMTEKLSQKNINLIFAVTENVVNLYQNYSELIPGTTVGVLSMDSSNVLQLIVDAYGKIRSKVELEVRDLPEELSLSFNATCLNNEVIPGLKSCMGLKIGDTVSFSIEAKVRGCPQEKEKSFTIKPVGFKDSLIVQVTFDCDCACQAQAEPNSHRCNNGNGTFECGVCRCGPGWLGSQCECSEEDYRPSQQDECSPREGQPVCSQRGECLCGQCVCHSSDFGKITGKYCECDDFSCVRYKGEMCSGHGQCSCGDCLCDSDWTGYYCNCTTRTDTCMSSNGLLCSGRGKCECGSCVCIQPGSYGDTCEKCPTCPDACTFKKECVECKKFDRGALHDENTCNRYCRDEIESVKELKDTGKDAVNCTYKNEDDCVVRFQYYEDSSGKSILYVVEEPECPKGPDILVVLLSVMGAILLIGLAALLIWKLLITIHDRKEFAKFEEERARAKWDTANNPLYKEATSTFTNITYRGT
Chain of Integrin alpha-V/beta-3 (P06756 31-889 limits assumed): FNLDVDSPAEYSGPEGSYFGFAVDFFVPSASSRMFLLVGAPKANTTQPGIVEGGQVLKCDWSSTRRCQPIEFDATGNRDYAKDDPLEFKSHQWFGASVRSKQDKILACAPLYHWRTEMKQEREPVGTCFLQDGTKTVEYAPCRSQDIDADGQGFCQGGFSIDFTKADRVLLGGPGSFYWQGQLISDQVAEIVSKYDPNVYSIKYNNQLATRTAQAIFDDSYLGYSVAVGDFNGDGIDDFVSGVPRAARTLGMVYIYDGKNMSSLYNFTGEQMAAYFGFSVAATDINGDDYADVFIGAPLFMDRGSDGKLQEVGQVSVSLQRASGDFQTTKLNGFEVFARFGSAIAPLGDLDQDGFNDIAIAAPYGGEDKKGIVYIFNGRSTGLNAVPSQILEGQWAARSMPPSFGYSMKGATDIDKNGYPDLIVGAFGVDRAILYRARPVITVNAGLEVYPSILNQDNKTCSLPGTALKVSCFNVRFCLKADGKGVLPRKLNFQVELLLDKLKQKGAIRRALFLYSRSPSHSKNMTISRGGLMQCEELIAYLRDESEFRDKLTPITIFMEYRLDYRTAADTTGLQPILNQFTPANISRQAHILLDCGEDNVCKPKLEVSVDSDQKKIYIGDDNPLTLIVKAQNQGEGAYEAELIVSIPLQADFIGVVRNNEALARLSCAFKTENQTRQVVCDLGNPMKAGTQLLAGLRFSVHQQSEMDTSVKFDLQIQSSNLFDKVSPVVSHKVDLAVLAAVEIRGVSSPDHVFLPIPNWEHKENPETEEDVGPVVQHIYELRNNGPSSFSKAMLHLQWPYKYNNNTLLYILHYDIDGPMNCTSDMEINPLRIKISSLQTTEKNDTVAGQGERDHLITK
Chain of Integrin alpha-V/beta-3 (P06756 891-1048 limits assumed): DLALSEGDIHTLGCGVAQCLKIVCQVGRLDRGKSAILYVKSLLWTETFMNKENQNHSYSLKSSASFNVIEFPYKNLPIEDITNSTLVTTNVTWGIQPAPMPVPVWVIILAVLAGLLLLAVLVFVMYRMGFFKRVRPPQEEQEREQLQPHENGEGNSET
A short description of series [7]: Inhibition of VCAM-1 binding to integrin alpha9/beta1 in Jurkat cells. Type of series: cell-based, Homo sapiens.
Series [8] is described as follows: Half life (t1/2) determined at a dose 10 mg/kg administered intraperitoneally to mice. The note with it: mouse, in vivo, ip. More on the design: dose 10 mg/kg, route intraperitoneal. Type of series: ADME, organism-based.

T1 sequence (P05556 whole entry): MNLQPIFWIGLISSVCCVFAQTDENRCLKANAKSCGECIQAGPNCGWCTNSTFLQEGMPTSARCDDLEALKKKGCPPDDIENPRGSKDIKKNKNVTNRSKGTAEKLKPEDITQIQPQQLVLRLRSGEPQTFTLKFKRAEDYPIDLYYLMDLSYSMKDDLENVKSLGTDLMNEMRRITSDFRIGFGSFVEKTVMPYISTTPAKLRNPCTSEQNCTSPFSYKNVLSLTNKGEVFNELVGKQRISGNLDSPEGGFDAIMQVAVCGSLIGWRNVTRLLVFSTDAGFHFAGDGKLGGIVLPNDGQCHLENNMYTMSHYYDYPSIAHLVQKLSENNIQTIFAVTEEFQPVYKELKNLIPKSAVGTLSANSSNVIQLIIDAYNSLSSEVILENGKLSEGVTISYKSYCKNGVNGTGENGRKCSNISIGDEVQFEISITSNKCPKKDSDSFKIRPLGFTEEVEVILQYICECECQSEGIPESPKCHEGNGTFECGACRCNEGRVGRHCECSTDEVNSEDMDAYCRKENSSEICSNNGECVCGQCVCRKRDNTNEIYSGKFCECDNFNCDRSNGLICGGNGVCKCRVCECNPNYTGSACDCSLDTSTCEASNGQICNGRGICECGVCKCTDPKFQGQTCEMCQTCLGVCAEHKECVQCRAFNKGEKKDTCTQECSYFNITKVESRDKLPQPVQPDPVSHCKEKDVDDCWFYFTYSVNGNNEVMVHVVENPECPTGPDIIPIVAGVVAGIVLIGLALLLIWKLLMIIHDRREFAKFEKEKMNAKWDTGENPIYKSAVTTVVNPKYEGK
T1 sequence (P13612 whole entry): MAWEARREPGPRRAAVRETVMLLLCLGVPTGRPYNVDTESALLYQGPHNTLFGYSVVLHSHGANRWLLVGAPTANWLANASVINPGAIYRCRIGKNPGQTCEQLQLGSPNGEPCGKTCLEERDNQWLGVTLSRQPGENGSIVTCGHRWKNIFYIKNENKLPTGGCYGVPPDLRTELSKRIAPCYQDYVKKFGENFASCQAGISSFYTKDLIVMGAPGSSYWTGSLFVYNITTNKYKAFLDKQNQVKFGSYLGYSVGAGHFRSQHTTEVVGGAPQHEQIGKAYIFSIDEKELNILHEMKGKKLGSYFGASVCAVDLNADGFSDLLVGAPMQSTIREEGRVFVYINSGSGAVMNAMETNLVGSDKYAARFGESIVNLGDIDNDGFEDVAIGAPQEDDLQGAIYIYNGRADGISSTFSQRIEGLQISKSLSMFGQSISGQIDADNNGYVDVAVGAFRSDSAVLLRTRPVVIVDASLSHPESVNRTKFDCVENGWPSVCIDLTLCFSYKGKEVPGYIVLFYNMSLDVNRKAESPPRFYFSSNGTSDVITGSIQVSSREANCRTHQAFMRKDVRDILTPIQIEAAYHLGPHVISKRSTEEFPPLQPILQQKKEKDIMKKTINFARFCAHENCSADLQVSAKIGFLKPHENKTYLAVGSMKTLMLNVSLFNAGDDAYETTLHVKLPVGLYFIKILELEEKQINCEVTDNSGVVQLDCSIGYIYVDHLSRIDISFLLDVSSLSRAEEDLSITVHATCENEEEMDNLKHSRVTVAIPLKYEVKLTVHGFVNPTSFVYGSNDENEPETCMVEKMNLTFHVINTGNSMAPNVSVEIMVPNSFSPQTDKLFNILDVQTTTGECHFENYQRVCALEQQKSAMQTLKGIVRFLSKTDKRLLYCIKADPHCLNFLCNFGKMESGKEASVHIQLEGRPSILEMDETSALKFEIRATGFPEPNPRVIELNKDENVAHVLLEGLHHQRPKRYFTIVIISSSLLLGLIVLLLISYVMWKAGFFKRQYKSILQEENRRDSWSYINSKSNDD

What is called IC50 is the concentration that gives 50% inhibition. In general, inhibition refers to the share of the control response that was lost under treatment. A higher inhibition goes with a response far below the control. In series [1], `Cc1ccccc1NC(=O)Nc1ccc(CC(=O)N[C@@H](CC(C)C)C(=O)N2CCC(C(=O)O)CC2)cc1` gave an IC50 of 4.7 µM. For the same compound, in series [2], the inhibition came to 96%.

For `Cc1ccccc1NC(=O)Nc1ccc(CC(=O)N[C@@H](CC(C)C)C(=O)N2CCC(CC(=O)O)CC2)cc1`, in series [1], the IC50 was 0.55 µM. The compound further had an inhibition in series [2] of 98%.

In turn, `Cc1ccccc1NC(=O)Nc1ccc(CC(=O)N[C@@H](CC(C)C)C(=O)N2CCCCC2C(C(=O)O)c2ccccc2)cc1` (stereo partly drawn) yielded an IC50 in series [1] of 4.96 µM. The compound also returned an inhibition in series [2] of 99%.

As to `Cc1ccccc1NC(=O)Nc1ccc(CC(=O)N[C@@H](CC(C)C)C(=O)N2CCCCC2C(=O)O)cc1` (stereo partly drawn), the IC50 in series [1] was found to be 10 µM. Also, in series [2], the inhibition amounted to 49%.

Consider `Cc1ccccc1NC(=O)Nc1ccc(CC(=O)N[C@@H](CC(C)C)C(=O)N2CCCC(CC(=O)O)C2)cc1` (stereo partly drawn), for which, in series [1], the IC50 was 7.2 µM. The inhibition in series [2] came out at 55%.

For `Cc1ccccc1NC(=O)Nc1ccc(CC(=O)N[C@@H](CC(C)C)C(=O)N2CCCC(C(=O)O)C2)cc1` (stereo partly drawn), the IC50 in series [1] is greater than 10 µM. The compound also showed an inhibition in series [2] of 25%.

`Cc1ccccc1NC(=O)Nc1ccc(CC(=O)N[C@@H](CC(C)C)C(=O)N2CCCC(CCC(=O)O)C2)cc1` (stereo partly drawn): the IC50 in series [1] came to 6.74 µM. In series [2], this compound came in with an inhibition of 77%.

By logP is commonly meant a log measure of how a compound divides between an organic and an aqueous phase. Read a low logP as lower lipophilicity. The compound `Cc1ccccc1NC(=O)Nc1ccc(CC(=O)N[C@@H](CC(C)C)C(=O)N[C@H](C)CC(=O)O)cc1` had a logP in series [3] of 1.72.

One may read the AUC as the area under the concentration-time curve, a measure of exposure. As a reminder, the Cmax is the peak of the concentration-time curve. The half-life is the time needed for the level to fall by half in the phase considered. Low values mean fast loss, high ones slow loss. `Cc1ccccc1NC(=O)Nc1ccc(CC(=O)N[C@@H](CC(C)C)C(=O)N2CCCCC2CC(=O)O)cc1` (stereo partly drawn) showed an area under the curve (AUC) in series [4] of 955 ng·h/mL. This compound also gave a Cmax in series [5] of 1440 ng/mL. For the same compound, the logP in series [3] worked out at 1.89. For the same compound, the values for the IC50 in series [6], in series [1] and in series [7] were greater than 200 µM, 0.3 µM and greater than 50 µM, respectively. In series [2], this compound registered an inhibition of 100%. The compound also showed a half-life in series [8] of 48 min.
